Experimental data from patent US20230312583A1, “1H-IMIDAZO [4,5-H] QUINAZOLINE COMPOUND AS NOVEL SELECTIVE FLT3 INHIBITORS” (SHENGKE PHARMACEUTICALS (JIANGSU) LTD., priority 2020, published 2023).

What was measured:
Type in all cases: biochemical
Conditions in all cases: 10 μM ATP
CDK2/cyclin E = CDK2/cyclin E (Homo sapiens (Human), UniProt P24941); experiment: Radiometric 33P-ATP kinase inhibition assay, CDK2/cyclin E
Method: (§1) Reactions were carried out in the presence of 10 μM ATP.
(§2) Procedures: • 1. Compounds were prepared in freshly prepared reaction buffers containing 20 mM HEPES (pH 7.5), 10 mM MgCl2, 1 mM EGTA, 0.01% Brij35, 0.02 mg/ml, BSA, 0.1 mM Na3VO4, 2 mM DTT, and 1% DMSO. • 2. […] Kinase such as 10 ng of recombinant CDK4/cyclin D1 (Life Technologies PV4204) diluted in a kinase buffer (20 mM Tris pH7.5, 10 mM MgCl2, 0.01% NP-40, 2 mM DTT), and incubated at room temperature for 30 minutes together with indicated concentration of inhibitors. • 4. Compounds in DMSO were added into the kinase reaction mixture utilizing acoustic technology (Echo550). • 5. 33P-ATP (specific activity 0.01 μCi/μl final) was added into the reaction mixture to initiate the reaction. • 6. The reaction mixture was incubated for 120 minutes at room temperature. • 7. […] Filters were extensively washed with 0.75% phosphoric acid. • 9. The radioactive phosphorylated substrate remaining on the filter paper was measured.
(§3) Kinase activity data were expressed as the percent remaining kinase activity in test samples compared to vehicle (dimethyl sulfoxide) reactions. IC50 values and curve fits were obtained using Prism4 Software (GraphPad).

CDK4/cyclin D1 = CDK4/cyclin D1 (Homo sapiens (Human), UniProt P11802); experiment: Radiometric 33P-ATP kinase inhibition assay, CDK4/cyclin
Method: as §1, §2, §3

C-Klt = C-Klt (Homo sapiens (Human), UniProt P10721); experiment: Radiometric 33P-ATP kinase inhibition assay, C-Klt
Method: as §1, §2, §3

CDK6/cyclin D1 = CDK6/cyclin D1 (Homo sapiens (Human), UniProt Q00534); experiment: Radiometric 33P-ATP kinase inhibition assay, CDK6/cyclin D1
Method: as §1, §2, §3

CDK1/cyclin B = CDK1/cyclin B (Homo sapiens (Human), UniProt P06493); experiment: Radiometric 33P-ATP kinase inhibition assay, CDK1/cyclin B
Method: as §1, §2, §3

C-Klt, sequence (P10721 26-976): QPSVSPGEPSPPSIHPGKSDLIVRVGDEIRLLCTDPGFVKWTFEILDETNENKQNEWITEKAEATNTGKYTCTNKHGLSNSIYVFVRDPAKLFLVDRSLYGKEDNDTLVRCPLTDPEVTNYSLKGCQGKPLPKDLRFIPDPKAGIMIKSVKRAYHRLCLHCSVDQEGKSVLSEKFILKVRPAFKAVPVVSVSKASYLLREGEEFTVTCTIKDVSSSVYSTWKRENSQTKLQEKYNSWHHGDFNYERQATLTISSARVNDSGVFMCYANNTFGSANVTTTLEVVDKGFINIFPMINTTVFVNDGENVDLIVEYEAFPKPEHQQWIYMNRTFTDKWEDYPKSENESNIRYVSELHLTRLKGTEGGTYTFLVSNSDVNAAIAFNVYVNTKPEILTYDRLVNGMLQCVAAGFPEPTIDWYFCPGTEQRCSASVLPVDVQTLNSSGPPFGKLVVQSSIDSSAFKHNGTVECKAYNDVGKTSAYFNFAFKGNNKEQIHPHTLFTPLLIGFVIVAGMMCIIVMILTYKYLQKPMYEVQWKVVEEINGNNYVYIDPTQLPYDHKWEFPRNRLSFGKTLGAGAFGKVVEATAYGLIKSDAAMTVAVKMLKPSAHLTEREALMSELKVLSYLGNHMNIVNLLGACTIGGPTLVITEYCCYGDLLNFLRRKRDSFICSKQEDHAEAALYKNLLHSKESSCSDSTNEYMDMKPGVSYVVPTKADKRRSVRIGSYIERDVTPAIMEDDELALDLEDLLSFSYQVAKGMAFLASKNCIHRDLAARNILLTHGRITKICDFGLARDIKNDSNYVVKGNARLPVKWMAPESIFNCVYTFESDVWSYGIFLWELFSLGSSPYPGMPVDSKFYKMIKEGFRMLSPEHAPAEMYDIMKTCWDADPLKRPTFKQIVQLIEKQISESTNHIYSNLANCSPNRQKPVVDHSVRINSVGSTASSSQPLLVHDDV
CDK4/cyclin D1, sequence (P11802 whole entry): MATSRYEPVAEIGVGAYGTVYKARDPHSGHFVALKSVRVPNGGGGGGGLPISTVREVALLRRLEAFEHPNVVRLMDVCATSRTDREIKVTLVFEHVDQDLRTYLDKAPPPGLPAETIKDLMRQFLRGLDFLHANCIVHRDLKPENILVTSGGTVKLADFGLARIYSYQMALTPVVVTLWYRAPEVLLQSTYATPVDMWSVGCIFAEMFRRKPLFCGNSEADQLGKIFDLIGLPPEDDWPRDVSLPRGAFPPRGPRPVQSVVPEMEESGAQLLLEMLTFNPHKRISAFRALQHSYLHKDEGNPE
CDK4/cyclin D1, sequence (P24385 whole entry partner): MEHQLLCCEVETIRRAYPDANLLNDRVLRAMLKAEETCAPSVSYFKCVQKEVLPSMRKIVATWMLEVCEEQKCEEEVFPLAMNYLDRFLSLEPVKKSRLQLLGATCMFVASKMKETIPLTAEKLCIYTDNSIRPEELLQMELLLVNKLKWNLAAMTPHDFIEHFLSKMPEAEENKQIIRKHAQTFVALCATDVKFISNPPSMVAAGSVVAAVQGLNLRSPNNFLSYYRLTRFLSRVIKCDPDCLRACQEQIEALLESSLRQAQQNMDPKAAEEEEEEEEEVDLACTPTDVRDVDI
CDK1/cyclin B, sequence (P06493 whole entry, species assumed): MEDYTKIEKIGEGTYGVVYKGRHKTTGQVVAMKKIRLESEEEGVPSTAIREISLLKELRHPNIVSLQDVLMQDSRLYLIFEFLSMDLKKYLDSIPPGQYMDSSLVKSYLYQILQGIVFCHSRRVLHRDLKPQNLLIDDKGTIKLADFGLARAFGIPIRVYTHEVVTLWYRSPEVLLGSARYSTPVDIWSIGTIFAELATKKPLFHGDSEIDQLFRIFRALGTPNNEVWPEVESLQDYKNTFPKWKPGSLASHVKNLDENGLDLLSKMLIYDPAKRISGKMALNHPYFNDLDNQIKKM
CDK1/cyclin B, sequence (P14635 whole entry partner, species assumed): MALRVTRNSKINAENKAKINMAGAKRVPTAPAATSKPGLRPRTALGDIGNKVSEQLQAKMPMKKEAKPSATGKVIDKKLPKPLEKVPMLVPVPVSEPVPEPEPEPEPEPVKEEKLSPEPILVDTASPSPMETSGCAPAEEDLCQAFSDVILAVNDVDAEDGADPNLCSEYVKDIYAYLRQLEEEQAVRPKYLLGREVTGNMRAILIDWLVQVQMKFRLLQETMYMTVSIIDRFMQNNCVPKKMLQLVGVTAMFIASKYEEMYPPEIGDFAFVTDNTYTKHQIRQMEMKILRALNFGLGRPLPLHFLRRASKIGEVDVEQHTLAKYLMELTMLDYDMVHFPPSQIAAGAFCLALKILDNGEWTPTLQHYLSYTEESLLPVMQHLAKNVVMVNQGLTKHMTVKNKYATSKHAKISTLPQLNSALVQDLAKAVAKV
CDK6/cyclin D1, sequence (Q00534 whole entry, species assumed): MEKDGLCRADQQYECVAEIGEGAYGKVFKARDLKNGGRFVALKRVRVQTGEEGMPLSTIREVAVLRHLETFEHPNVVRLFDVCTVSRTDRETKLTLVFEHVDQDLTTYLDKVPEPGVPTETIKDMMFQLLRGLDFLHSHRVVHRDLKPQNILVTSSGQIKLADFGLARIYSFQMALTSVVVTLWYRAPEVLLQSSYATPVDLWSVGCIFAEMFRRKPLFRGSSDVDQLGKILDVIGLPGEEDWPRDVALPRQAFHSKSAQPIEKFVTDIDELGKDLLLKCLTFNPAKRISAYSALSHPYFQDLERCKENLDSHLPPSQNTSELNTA
CDK6/cyclin D1, sequence (P24385 whole entry partner, species assumed): as the sequence (P24385 whole entry partner) above

IC50 (CDK2/cyclin E) | IC50 (CDK4/cyclin D1) | IC50 (C-Klt) | Structure (SMILES) | IC50 (CDK6/cyclin D1) | IC50 (CDK1/cyclin B)
189 nM | 61 nM | 32.1 nM | COc1cc(Nc2ncc3ccc4ncn(C(C)C)c4c3n2)ncc1N1CCN(C)CC1 [Compound I-1] | – | –
162 nM | 66.8 nM | – | CCN1CCN(c2cnc(Nc3ncc4ccc5ncn(C(C)C)c5c4n3)cc2OC)CC1 [Compound I-2, N-(5-(4-ethylpiperazin-1-yl)-4-methoxypyridin-2-yl)-1-isopropyl-1H-imidazo[4,5-h]quinazolin-8-amine] | – | –
46.9 nM | 186 nM | 60.6 nM | COc1cc(Nc2ncc3ccc4ncn(C(C)C)c4c3n2)ncc1N1CC2(COC2)C1 [Compound I-3] | – | –
69.5 nM | 52.9 nM | 16.6 nM | COc1cc(Nc2ncc3ccc4ncn(C(C)C)c4c3n2)ncc1N1CC2(CNC2)C1 [Compound I-4] | – | –
483 nM | 95 nM | 25.6 nM | COc1cc(Nc2ncc3ccc4ncn(C(C)C)c4c3n2)ncc1N1CCNC(C)(C)C1 [Compound I-5] | – | –
> 500 nM | 245 nM | 94.7 nM | CNC1CN(c2cnc(Nc3ncc4ccc5ncn(C(C)C)c5c4n3)cc2OC)C1 [Compound I-6] | – | –
> 500 nM | 99.1 nM | 31.5 nM | CCOc1cc(Nc2ncc3ccc4ncn(C(C)C)c4c3n2)ncc1N1CCN(C)CC1 [Compound I-7] | – | –
> 500 nM | > 500 nM | 89.1 nM | CCOc1cc(Nc2ncc3ccc4ncn(C(C)C)c4c3n2)ncc1N1CCOCC1 [Compound I-8] | – | –
> 500 nM | 292 nM | 111 nM | CC(C)n1cnc2ccc3cnc(Nc4cc(OCC5CC5)c(N5CCNCC5)cn4)nc3c21 [Compound I-10] | – | 451 nM
301 nM | 66 nM | 15 nM | COc1cc(Nc2ncc3ccc4ncn(C(C)C)c4c3n2)ncc1N1CC2CCC1CN2 (stereo not shown) [Compound I-12] | – | –
– | 109 nM | – | CC#CCOc1cc(Nc2ncc3ccc4ncn(C(C)C)c4c3n2)ncc1N1CCNCC1 [Compound I-13] | – | –
436 nM | 46.1 nM | 70.9 nM | CC(C)n1cnc2ccc3cnc(Nc4cc(Oc5ccccc5)c(N5CCNCC5)cn4)nc3c21 [Compound I-14] | – | –
> 500 nM | 267 nM | 118 nM | COc1cc(Nc2ncc3ccc4ncn(C(C)C)c4c3n2)ncc1NCC1COC(=O)N1C (stereo not shown) [Compound I-15] | – | –
– | – | 75.1 nM | COc1cc(Nc2ncc3cc(C)c4ncn(C(C)C)c4c3n2)ccc1N1CCOCC1 [II-1, 1-isopropyl-N-(3-methoxy-4-morpholinophenyl)-4-methyl-1H-imidazo[4,5-h]quinazolin-8-amine] | – | –

Structure (SMILES) | IC50 (CDK2/cyclin E) | IC50 (CDK4/cyclin D1) | IC50 (C-Klt) | IC50 (CDK6/cyclin D1) | IC50 (CDK1/cyclin B)
CC(C)n1cnc2ccc3cnc(Nc4cc(OCCF)c(N5CC6CC(C5)N6)cn4)nc3c21 [Compound I-9] | 91.1 nM | 39.5 nM | 15 nM | 22.5 nM | –
COc1cc(Nc2ncc3ccc4ncn(C(C)C)c4c3n2)ncc1N1C2CCC1CNC2 [Compound I-11] | > 500 nM | 98.3 nM | 29.8 nM | – | –
CCOc1cc(Nc2ncc3ccc4ncn(CC)c4c3n2)ncc1N1CCN(CC)CC1 [Compound V-1, N-(4-ethoxy-5-(4-ethylpiperazin-1-yl)pyridin-2-yl)-1-ethyl-1H-imidazo[4,5-h]quinazolin-8-amine] | – | 221 nM | 21.3 nM | – | –
CC(C)Oc1cc(Nc2ncc3ccc4ncn(C)c4c3n2)ncc1N1CCNCC1 [IV-1, N-(4-isopropoxy-5-(piperazin-1-yl)pyridin-2-yl)-1-methyl-1H-imidazo[4,5-h]quinazolin-8-amine] | – | – | 137 nM | – | –
COc1cc(Nc2ncc3ccc4nc(C)n(C(C)C)c4c3n2)ncc1N1CCOCC1 [VI-1, 1-isopropyl-N-(4-methoxy-5-morpholinopyridin-2-yl)-2-methyl-1H-imidazo[4,5-h]quinazolin-8-amine] | 89.1 nM | 245 nM | 46 nM | – | 397 nM
